The values that follow come from patent publication USRE40050E1, “Method for cleaning and/or disinfecting food processing equipment” (priority 1999, dated 2008).

The conditions of experiment [1]: root beer, buffered pH about 11, integrated absorbance 440 to 700 nm vs control without CIP composition; ppm of active as per example. Here is the method: For each of the five (5) experiments below, two quartz UV cells having a path length of 5.0 cm were each charged with 5.95 mL of a 0.1 molar sodium phosphate solution (to establish a buffered pH of about 11). The first cell was further charged with 0.6 mL of neat (conventional) root beer, as made commercially available. The second cell was further charged with 0.6 mL deionized water. Using the contents of the second cell as the blank, the absorbance of the resulting root beer solution was determined over the range of 440 to 700 nm, using a Hewlett-Packard 8452 UV/vis spectrophotometer. The absorbance over this wavelength range was integrated, and the percent (%) reduction in color of root beer was based on a comparison to the integrated absorbance of the control to which no CIP composition has been added.

For another experiment, the system named is Bacillus cerus. The experiment in a line: Suspension test, percent microbes killed by CIP composition. Type of experiment: cell-based. To be noted: suspension 8.5 log bacteria/mL, 50 ppm CaCO3. On the procedure: (§1) American Type Culture Collection cultures were transferred daily and maintained on agar slants containing the appropriate growth medium^1. A loopful of the culture was transferred into 10 ml of Butterfield's phosphate buffer pH 7.2 (NutraMax Products, Inc.) and agitated to obtain a homogeneous turbid suspension. The actual concentration of microbes in suspension was estimated by its serial dilution in Butterfield's phosphate buffer and subsequent transfer of 0.1 ml of the dilution series into a Petri plate containing the appropriate agar growth medium. The inoculated Petri plates were incubated for 48-72 hours (at about 37° C.) and the resulting colonies counted with a Quebec colony counter. The number of colonies on the Petri plates multiplied by the serial dilution factor is equal to the number of microbes in 0.1 ml of inoculum.
(§2) Suspension test: 1 ml of each microbial suspension was mixed with 9 ml of each CIP composition containing 50 ppm CaCO3 at 10/9 of the recommended use concentration (RUC) so that final concentration was exact RUC. After contact times described above, 1 ml of the mixture was put to 9 ml of neutralizer^2 from which 0.1 ml of sample was plated onto the appropriate agar and incubated at 28° C. for 48-72 hours before counting. The number of colonies present on the Petri plates multiplied by the serial dilution factor is equal to the number of microbes in 0.1 ml that survived in the sanitizer solution.
(§3) The per cent microbes killed by CIP composition is calculated by using the following equation: […]
(§4) One (1) mL of suspension and 9.0 mL of CIP composition were combined, resulting in the above data. The pH of the chlorine dioxide CIP composition was 5.8, the mixed halogen is sold by DiverseyLever under the name of Divosan MH and the peroxyacetic acid was an aqueous solution having about 65% water.

In another experiment the test system is Byssochlamys nivea. Described as above. Type of experiment: cell-based. To be noted: suspension 8.1 log bacteria/mL, 50 ppm CaCO3. On the procedure: as §1, §2, §3, §4
In a further experiment the test system is Candida Albicans. Described as above. Format: cell-based. To be noted: suspension 8.0 log bacteria/mL, 50 ppm CaCO3. Here is the method: as §1, §2, §3, §4
Another experiment relates to Lactobacillus brevis. The description is as above. To be noted: suspension 8.2 log bacteria/mL, 50 ppm CaCO3. Type of experiment: cell-based. On the procedure:
as §1, §2, §3, §4

Another experiment relates to Rhizopus stolonifer. The experiment is described as above. Type of experiment: cell-based. To be noted: suspension 7.5 log bacteria/mL, 50 ppm CaCO3. Here is the method: as §1, §2, §3, §4
Another experiment concerns Zygosaccharomyces bailii. The description is as above. To be noted: suspension 8.5 log bacteria/mL, 50 ppm CaCO3. Format: cell-based. On the procedure:
as §1, §2, §3, §4

`[O][Cl+][O-]` [Example 3, chlorine dioxide]: in experiment [1], the “% Reduction of Color” value was 56.09%.

On to `[Na+].[O-]Cl` [Example 4, sodium hypochlorite], for which the “% Reduction of Color” value in experiment [1] stood at 36.49%.

Turning to `CC(=O)OO` [Example 6, peroxyacetic acid], in experiment [1], the “% Reduction of Color” value is recorded as 25.76%.

Turning to `[O][Cl+][O-]` [Example 7, chlorine dioxide], in the experiment on Bacillus cerus (contact 2 minutes), the “percent bacteria killed, Bacillus cerus” value is listed as about 99.9999%. Further, the “percent bacteria killed, Byssochlamys nivea” value in the experiment on Byssochlamys nivea (contact 30 seconds) was “About 99.99%”; in the experiment with Byssochlamys nivea (contact 2 minutes) it was about 99.9999%. For the same compound, the “percent bacteria killed, Candida Albicans” value in the experiment with Candida Albicans (contact 2 minutes) was “About 99.9999%”. Moreover, the “percent bacteria killed, Lactobacillus brevis” value in the experiment with Lactobacillus brevis (contact 2 minutes) is about 99.9999%. Moreover, the “percent bacteria killed, Rhizopus stolonifer” value with Rhizopus stolonifer (contact 30 seconds) is “About 99.99%”; in the experiment on Rhizopus stolonifer (contact 2 minutes), about 99.9999%. The “percent bacteria killed, Zygosaccharomyces bailii” value with Zygosaccharomyces bailii (contact 2 minutes) is given as about 99.9999%.

Consider `CC(=O)OO` [Example 9, Peroxyacetic acid], for which the “percent bacteria killed, Bacillus cerus” value with Bacillus cerus (contact 30 seconds) is about 99.99%; in the experiment on Bacillus cerus (contact 2 minutes) it was about 99.9999%. Also, the “percent bacteria killed, Byssochlamys nivea” value in the experiment on Byssochlamys nivea (contact 30 seconds) is given as “About 99.9%”; in the experiment with Byssochlamys nivea (contact 2 minutes), “About 99.99%”. The “percent bacteria killed, Candida Albicans” value was “About 99.99%” with Candida Albicans (contact 30 seconds) and “About 99.9999%” with Candida Albicans (contact 2 minutes). Moreover, the “percent bacteria killed, Lactobacillus brevis” value in the experiment with Lactobacillus brevis (contact 30 seconds) and with Lactobacillus brevis (contact 2 minutes) was about 99.9999% each time. The “percent bacteria killed, Rhizopus stolonifer” value in the experiment on Rhizopus stolonifer (contact 30 seconds) and in the experiment with Rhizopus stolonifer (contact 2 minutes) was under 99% throughout. In addition, the “percent bacteria killed, Zygosaccharomyces bailii” value with Zygosaccharomyces bailii (contact 30 seconds) is “About 99.99%”; in the experiment on Zygosaccharomyces bailii (contact 2 minutes) it was about 99.9999%.
